# Source: publication PMC5991599, “Anti‐tumor efficacy of a novel CLK inhibitor via targeting RNA splicing and MYC‐dependent vulnerability” (EMBO Molecular Medicine, 2018)
# Tests used:
# 786-O = test: Cell proliferation assay (CellTiter-Glo); format: cell-based; settings: Homo sapiens, 786-0; 72 h treatment; kidney cancer; read-out: IC50 (growth inhibition)
# Method: (§1) Cell proliferation assay, Caspase-3/7 assay
# (§2) Cell proliferation was measured using CellTiter-Glo luminescent cell viability
# (§3) assay (Promega, Fitchburg, WI, U.S.A.). Caspase-3/7 activity was measured using
# (§4) Caspase-Glo 3/7 Assay Systems (Promega). Luminescence of each well was measured
# (§5) using ARVO Light (PerkinElmer Inc., Waltham, MA, U.S.A.). The IC50 value and 95%
# (§6) confidential intervals were estimated using GraphPad Prism 5 (GraphPad Software,
# (§7) Inc., La Jolla, CA, U.S.A.). […]
# BJ = test: Cell proliferation assay (CellTiter-Glo); format: cell-based; settings: Homo sapiens, 72 h treatment, normal skin fibroblast, read-out: IC50 (growth inhibition)
# Method: as §1, §2, §3, §4, §5, §6, §7
# COLO320HSR [1] = test: Cell proliferation assay (CellTiter-Glo); format: cell-based; settings: Homo sapiens, COLO-320-HSR; 72 h treatment; colorectal cancer; read-out: IC50 (growth inhibition)
# Method: as §1, §2, §3, §4, §5, §6, §7
# MDA-MB-468 [2] = test: Cell proliferation assay (CellTiter-Glo); format: cell-based; settings: Homo sapiens, 72 h treatment, breast cancer, read-out: IC50 (growth inhibition)
# Method: as §1, §2, §3, §4, §5, §6, §7
# NCI-H1048 = test: Cell proliferation assay (CellTiter-Glo); format: cell-based; settings: Homo sapiens, 72 h treatment, lung cancer, read-out: IC50 (growth inhibition)
# Method: as §1, §2, §3, §4, §5, §6, §7
# Wi38 = test: Cell proliferation assay (CellTiter-Glo); format: cell-based; settings: Homo sapiens, WI-38; 72 h treatment; normal lung fibroblast; read-out: IC50 (growth inhibition)
# Method: as §1, §2, §3, §4, §5, §6, §7
# BV173 = test: Panel of growth inhibition assays (OncoPanel 240); format: cell-based; settings: Homo sapiens, BV-173; 72 h; leukemia; read-out: IC50 (Oncopanel, cell count)
# Method: (§8) The KINOMEScan‐based kinase selectivity assay was performed at the DiscoverX Corporation (Fremont, CA, USA). The panel of growth inhibition assay and subsequent bioinformatics analysis (Fig EV1) were performed at Eurofins Inc. (St. Charles, MO, USA), using OncoPanel 240 or 60. Details of the procedures of cell proliferation assay, caspase‐3/7 activity assay, immunoblotting, and immunohistochemistry are described in Appendix Supplementary Methods.
# (§9) Panel of growth inhibition assay and subsequence bioinformatics analysis (at […]
# (§10) A growth inhibition assay panel and subsequent bioinformatics analysis were performed at Eurofins Inc. (MO, U.S.A.) by utilizing Oncopanel240 or 60.
# (§11) According to the study reports from Eurofins Inc., cells were seeded into 384 well plates at a single cell density in standardized media. After 24 hours, the test compounds were added and the plate was incubated continuously for 72 hours. Cells were then fixed and stained to visualize nuclei. The number of nuclei was counted and normalized.
# (§12) Cellular response parameters were calculated using nonlinear regression to a sigmoidal single-site dose response model and the IC50 value of each cell line was calculated.
# (§13) Genomic features were binned into six distinct categories, each of which was considered to be a “biomarker-positive” grouping: Mutated (non-synonymous, coding, and non-coding mutations), Amplified, Deleted, Overexpressed, Mutated or amplified (gain-of-function), and Mutated or deleted (loss-of-function). Two orthogonal significance tests were performed on each genomic feature as follows.
# (§14) Student’s t-test: For each genomic feature within each of the six above categories, IC50 cell count values for biomarker-positive and biomarker-negative groups were […]
# COLO320HSR [3] = test: Panel of growth inhibition assays (OncoPanel 240); format: cell-based; settings: Homo sapiens, COLO-320-HSR; 72 h; colorectal cancer; read-out: IC50 (nmol/L) Oncopanel
# Method: as §8, §9, §10, §11, §12, §13, §14
# DOHH2 = test: Panel of growth inhibition assays (OncoPanel 240); format: cell-based; settings: Homo sapiens, DOHH-2; 72 h; lymphoma; read-out: IC50 (Oncopanel, cell count)
# Method: as §8, §9, §10, §11, §12, §13, §14
# EM2 = test: Panel of growth inhibition assays (OncoPanel 240); format: cell-based; settings: Homo sapiens, EM-2; 72 h; leukemia; read-out: IC50 (Oncopanel, cell count)
# Method: as §8, §9, §10, §11, §12, §13, §14
# K562 = test: Panel of growth inhibition assays (OncoPanel 240); format: cell-based; settings: Homo sapiens, 72 h, leukemia, read-out: IC50 (Oncopanel, cell count)
# Method: as §8, §9, §10, §11, §12, §13, §14
# L428 = test: Panel of growth inhibition assays (OncoPanel 240); format: cell-based; settings: Homo sapiens, L-428; 72 h; lymphoma; read-out: IC50 (Oncopanel, cell count)
# Method: as §8, §9, §10, §11, §12, §13, §14
# MDA-MB-468 [4] = test: Panel of growth inhibition assays (OncoPanel 240); format: cell-based; settings: Homo sapiens, 72 h, breast cancer, read-out: IC50 (nmol/L) Oncopanel
# Method: as §8, §9, §10, §11, §12, §13, §14
# MV-4-11 = test: Panel of growth inhibition assays (OncoPanel 240); format: cell-based; settings: Homo sapiens, MV4-11; 72 h; leukemia; read-out: IC50 (Oncopanel, cell count)
# Method: as §8, §9, §10, §11, §12, §13, §14
# NALM6 = test: Panel of growth inhibition assays (OncoPanel 240); format: cell-based; settings: Homo sapiens, NALM-6; 72 h; leukemia; read-out: IC50 (Oncopanel, cell count)
# Method: as §8, §9, §10, §11, §12, §13, §14
# ST486 = test: Panel of growth inhibition assays (OncoPanel 240); format: cell-based; settings: Homo sapiens, 72 h, lymphoma, read-out: IC50 (Oncopanel, cell count)
# Method: as §8, §9, §10, §11, §12, §13, §14
# THP1 = test: Panel of growth inhibition assays (OncoPanel 240); format: cell-based; settings: Homo sapiens, THP-1; 72 h; leukemia; read-out: IC50 (Oncopanel, cell count)
# Method: as §8, §9, §10, §11, §12, §13, §14
# HIPK2 = HIPK2 (Homo sapiens, UniProt Q9H2X6); test: Immunoblotting of pS46 p53, direct phosphorylation site of HIPK2, in cells; format: cell-based; settings: up to 1000 nmol/L; immunoblot from Fig 2A samples (MDA-MB-468, 6 h)
# Text: EMBO Molecular Medicine - Peer Review Process File
# PRS6KB1 was observed by RNAi of CLK2 and T-025.
# It had already been reported that ASs induced by […]
# that T-025 and depletion of CLKs caused a similar splicing effect.
# Furthermore, T3, another CLK […]
# and increased MYC-dependent vulnerability (Fig EV4). […]
# phosphorylation, at a direct phosphorylation site of HIPK2, up to 1000 nmol/L (see below, from Fig.
# In quantifying the bands of pCLK2, the background of this immunoblotting around 50 kDa was relatively high and the band was shifted in the T-025 treated samples (below); thus, we could not […]
# BF is undefined and ∆PSI is not clearly defined. If ∆PSI is really "percentage splice-in", none of the effects is significant. The normalization of ∆PSI is unclear. In Figure 2E, the difference between […]
# According to the MISO software, the Bayer Factor (BF) represents the weight of the evidence in the data in favor of differential expression versus the weight of evidence not in favor. For example, a © European Molecular Biology Organization 13 […]
# other kinases = test: KINOMEScan-based kinase selectivity assay, kinases other than CLK/DYRK1; format: binding
# Method: as §8
# Chain of HIPK2 (Q9H2X6 whole entry): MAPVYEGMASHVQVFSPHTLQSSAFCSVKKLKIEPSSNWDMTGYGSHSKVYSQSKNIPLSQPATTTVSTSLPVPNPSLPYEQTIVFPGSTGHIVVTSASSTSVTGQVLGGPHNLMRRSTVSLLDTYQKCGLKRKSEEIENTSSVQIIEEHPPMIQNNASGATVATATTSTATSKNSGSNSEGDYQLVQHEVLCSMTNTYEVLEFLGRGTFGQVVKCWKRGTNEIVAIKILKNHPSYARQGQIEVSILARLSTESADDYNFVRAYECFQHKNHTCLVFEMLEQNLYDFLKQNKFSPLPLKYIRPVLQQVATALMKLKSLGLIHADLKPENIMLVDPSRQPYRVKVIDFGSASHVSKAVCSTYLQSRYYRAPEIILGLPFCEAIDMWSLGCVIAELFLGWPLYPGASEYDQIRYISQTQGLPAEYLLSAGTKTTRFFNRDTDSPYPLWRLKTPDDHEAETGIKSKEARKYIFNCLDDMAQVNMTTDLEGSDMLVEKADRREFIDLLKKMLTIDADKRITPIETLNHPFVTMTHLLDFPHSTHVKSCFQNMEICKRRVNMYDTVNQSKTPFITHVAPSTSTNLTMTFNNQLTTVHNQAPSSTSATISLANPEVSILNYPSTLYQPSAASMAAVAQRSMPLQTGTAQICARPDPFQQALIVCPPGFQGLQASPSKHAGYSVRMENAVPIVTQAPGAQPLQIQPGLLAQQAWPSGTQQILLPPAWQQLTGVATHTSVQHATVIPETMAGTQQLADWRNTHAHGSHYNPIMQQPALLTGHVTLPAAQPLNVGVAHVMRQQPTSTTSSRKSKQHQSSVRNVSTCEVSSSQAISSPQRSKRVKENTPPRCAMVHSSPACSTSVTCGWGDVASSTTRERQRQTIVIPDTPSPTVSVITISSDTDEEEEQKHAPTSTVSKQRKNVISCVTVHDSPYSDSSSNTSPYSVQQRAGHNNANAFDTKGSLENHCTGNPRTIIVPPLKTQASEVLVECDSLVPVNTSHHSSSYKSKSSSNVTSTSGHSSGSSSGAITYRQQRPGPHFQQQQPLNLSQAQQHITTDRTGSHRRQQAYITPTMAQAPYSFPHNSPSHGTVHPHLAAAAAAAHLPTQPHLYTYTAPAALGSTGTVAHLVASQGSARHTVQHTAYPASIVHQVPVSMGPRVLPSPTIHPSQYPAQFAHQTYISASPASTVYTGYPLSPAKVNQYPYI
smiles,measurement,setting,value
"CNc1nc(NCc2ncccn2)c2c(-c3ccc4ncccc4c3)c[nH]c2n1 [T-025, N ^2‐methyl‐N ^4‐[pyrimidin‐2‐ylmethyl]‐5‐[quinolin‐6‐yl]‐7H‐pyrrolo[2,3‐d]pyrimidine‐2,4‐diamine]",IC50,786-O,340 nM
same,IC50,BJ,355 nM
same,IC50,COLO320HSR [1],91.8 nM
same,IC50,MDA-MB-468 [2],79.8 nM
same,IC50,NCI-H1048,84.4 nM
same,IC50,Wi38,257 nM
same,IC50,BV173,21.8 nM
same,IC50,COLO320HSR [3],30.1 nmol/L
same,IC50,DOHH2,39.5 nM
same,IC50,EM2,104 nM
same,IC50,K562,129 nM
same,IC50,L428,116 nM
same,IC50,MDA-MB-468 [4],47.1 nmol/L
same,IC50,MV-4-11,30.1 nM
same,IC50,NALM6,52.6 nM
same,IC50,ST486,57.1 nM
same,IC50,THP1,228 nM
same,inhibition of HIPK2 in cells (pS46 p53 phosphorylation),HIPK2,did not inhibit HIPK2
same,selectivity for CLK/DYRK1 over other kinases,other kinases,> 300 fold
same,Kd,"other kinases; no other kinase had Kd < 30, read-out: Kd of other kinases outside of CLK and DYRK1 family",≥ 30 nM
